In the NIST ThermoML archive (doi:10.1021/je900524t) one finds Normal melting temperature data, which are given here for one compound.

Numbers after ± are expanded uncertainties.

For this series the following is noted: Crystal; visual observation.

Regarding `F[P-](F)(F)(F)(F)F.F[P-](F)(F)(F)(F)F.c1cc[n+](CC[n+]2ccccc2)cc1` [1,1'-(ethane-1,2-diyl)bis(pyridin-1-ium) hexafluorophosphate], the Normal melting temperature was 220.20 ± 1.4 °C.
